System: 70% normal and 30% senescent human dermal fibroblasts
Experiment: Senolytic activity study (SA-beta-galactosidase, flow cytometry)
Assay type: cell-based
Details: 1.5 μM, 72 hours
Description: Normal and senescent cell populations were obtained from normal human dermal fibroblasts. For the normal cell population, the cells were seeded in cell culture medium (Dulbecco's Modified Eagle Medium supplemented with 10% serum and 1% antibiotics) and allowed to adhere and proliferate in a humidified cell incubator maintaining 37° C. and 5% CO2. These were then passaged or collected when 90% confluent. For the senescent cell population, the normal fibroblast cells were at this stage shortly exposed to 200 μM H2O2 followed by normal cell culture medium. Several days later, the cells were treated again with H2O2 to obtain a fully senescent population. Both normal and senescent populations were mixed into a 70% normal and 30% senescent cell population and represented the treatment population. Afterward, the 70% normal and 30% senescent cell population were seeded in cell culture medium and allowed to adhere in the cell incubator. […] Afterward, senescence-associated beta-galactosidase was visualized—a well-known senescence marker—in the cells to quantify the senescence levels using flow cytometry. […] Data are normalized to the untreated control (30% senescent cells and 70% normal cells) and expressed as the mean±SD (n=4).

- Significant senolytic effect (versus CTRL): Yes
SMILES: CC1(C)CCC(c2ccc(Cl)cc2)=C(CN2CCN(c3ccc(C(=O)NS(=O)(=O)c4ccc(N[C@H](CCN5CCOCC5)CSc5ccccc5)c(S(=O)(=O)C(F)(F)F)c4)cc3)CC2)C1 [Navitoclax]
- Senescent cells (%) (70% normal/30% senescent mix, normalized to untreated control (30%), mean, n=4): 10%
